Target: T1, HassOR31/HassORco (Helicoverpa assulta, UniProt A0A7D3UMA0)
T1 construct: with Odorant receptor coreceptor
T1 sequence (A0A7D3UMA0 1-395): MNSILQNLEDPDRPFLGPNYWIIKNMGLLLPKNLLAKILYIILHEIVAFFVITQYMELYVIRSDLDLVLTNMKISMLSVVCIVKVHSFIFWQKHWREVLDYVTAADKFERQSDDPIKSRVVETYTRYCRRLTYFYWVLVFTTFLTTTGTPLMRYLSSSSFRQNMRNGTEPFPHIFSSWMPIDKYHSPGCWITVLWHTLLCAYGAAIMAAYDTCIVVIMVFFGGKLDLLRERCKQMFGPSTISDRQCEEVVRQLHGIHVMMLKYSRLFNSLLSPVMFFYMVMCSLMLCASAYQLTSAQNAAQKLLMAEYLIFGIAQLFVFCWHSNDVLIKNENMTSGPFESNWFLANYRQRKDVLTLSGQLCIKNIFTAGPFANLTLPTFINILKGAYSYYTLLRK
T1 sequence (A7UGE1 1-473 partner): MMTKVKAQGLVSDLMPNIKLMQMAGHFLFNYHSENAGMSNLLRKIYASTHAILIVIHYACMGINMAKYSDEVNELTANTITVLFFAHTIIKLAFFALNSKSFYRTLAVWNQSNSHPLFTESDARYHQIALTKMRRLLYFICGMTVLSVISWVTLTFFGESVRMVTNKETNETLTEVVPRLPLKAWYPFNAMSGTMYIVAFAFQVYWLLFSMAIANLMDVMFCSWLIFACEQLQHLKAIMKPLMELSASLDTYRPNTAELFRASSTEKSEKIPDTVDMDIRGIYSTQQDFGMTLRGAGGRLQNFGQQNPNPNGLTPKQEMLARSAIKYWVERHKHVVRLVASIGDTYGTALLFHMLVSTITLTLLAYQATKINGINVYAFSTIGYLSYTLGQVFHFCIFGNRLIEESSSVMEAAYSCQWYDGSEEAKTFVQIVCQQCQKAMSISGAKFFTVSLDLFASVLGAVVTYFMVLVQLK
Experiment: two-electrode voltage clamp, Xenopus oocytes, inward current
Type: cell-based

EC50: 16.1 µM
SMILES: CC/C=C\CCOC(=O)CCC [Z-3-hexenyl butyrate]
